Data reported in patent US10131664B2 (Celgene Quanticel Research, Inc., priority 2013, dated 2018).
One block for each compound: values may come before it.

Key:
THP-1 (AML) cells = test: LSD1 CD11b cellular assay (flow cytometry); format: cell-based; conditions: Homo sapiens, 96 h; CD11b expression in THP-1 (AML) cells, flow cytometry, 4 days incubation; read-out: Cellular IC50
Procedure: To analyze LSD1 inhibitor efficacy in cells, a CD11b flow cytometry assay was performed. LSD1 inhibition induces CD11b expression in THP-1 (AML) cells which can be measured by flow cytometry. […] LSD1 test compounds were serially diluted in DMSO. The dilutions were added to each well accordingly to a final concentration of 0.2% DMSO. The cells were incubated at 37° C. in 5% CO2 for 4 days. 250 μL of each well was transferred to a well in a 96 well round bottom plate. The plate was centrifuged at 1200 rpm at 4 degrees Celsius in a Beckman Coulter Alegra 6KR centrifuge for 5 min. The media was removed leaving the cells at the bottom of the wells. The cells were washed in 100 μL cold HBSS (Hank's Balanced Salt Solution) plus 2% BSA (Bovine Serum Albumin) solution and centrifuged at 1200 rpm at 4° C. for 5 min. The wash was removed. […] The cells were centrifuged and washed two times in 100 μl HBSS plus 2% BSA. After the final spin the cells were resuspended in 100 μL HBSS plus 2% BSA containing 1 μg/mL DAPI (4′,6-diamidino-2-phenylindole). The cells were then analyzed by flow cytometry in a BD FACSAria machine. Cells were analyzed for CD11b expression. The percent of CD11b expressing cells for each inhibitor concentration was used to determine an IC50 curve for each compound analyzed.

full-length human LSD1 = full-length human LSD1 (Homo sapiens (Human), UniProt O60341); test: In vitro enzyme inhibition assay LSD-1 (TR-FRET); format: biochemical; conditions: TR-FRET, 0.1 nM LSD1, 50 nM H3K4me1-biotin peptide, 2 μM FAD, pH7.3; read-out: LSD1 IC50
Procedure: This assay determines the ability of a test compound to inhibit LSD1 demethylase activity.
The enzymatic assay of LSD1 activity is based on Time Resolved-Fluorescence Resonance Energy Transfer (TR-FRET) detection.
The ability of the compounds disclosed herein to inhibit LSD1 activity was quantified and the respective IC50 value was determined. Table 5 provides the IC50 values of various substituted heterocyclic compounds disclosed herein.

Structure (SMILES): N#Cc1ccc(-n2nc(C(=O)N3CCC[C@@H](N)C3)cc2OCc2cccnc2)cc1 [Example 57, 4-{3-[((3R)-3-Aminopiperidyl)carbonyl]-5-(3-pyridylmethoxy)pyrazolyl}benzenecarbonitrile]
IC50 (THP-1 (AML) cells): 100 to 1000 nM | IC50 (full-length human LSD1): < 100 nM

Structure (SMILES): N#Cc1ccc(-n2nc(C(=O)N3CCC[C@@H](N)C3)cc2OCc2ccncc2)cc1 [Example 58, 4-{3-[((3R)-3-aminopiperidyl)carbonyl]-5-(4-pyridylmethoxy)pyrazolyl}benzenecarbonitrile]
IC50 (THP-1 (AML) cells): 1000 to 10000 nM | IC50 (full-length human LSD1): < 100 nM

Structure (SMILES): N#Cc1ccc(-c2nc(N3CCC4NCCC4C3)ncc2-c2cnn(CC(F)(F)F)c2)cc1 (stereo not shown) [Example 63, 4-[2-{1,2,3,3a,4,6,7,7a-octahydropyrrolo[3,2-c]pyridin-5-yl)-5-[1-(2,2,2-trifluoroethyl)pyrazol-4-yl]pyrimidin-4-yl]benzonitrile]
IC50 (THP-1 (AML) cells): 100 to 1000 nM | IC50 (full-length human LSD1): < 100 nM

Structure (SMILES): Cn1ncc2nc(-c3cnc(N4CCC(N)CC4)nc3-c3ccc(C#N)cc3)ccc21 [Example 67, 4-[2-(4-aminopiperidin-1-yl)-5-(1-methylpyrazolo[4,3-b]pyridin-5-yl)pyrimidin-4-yl]benzonitrile]
IC50 (THP-1 (AML) cells): 100 to 1000 nM | IC50 (full-length human LSD1): < 100 nM

Structure (SMILES): Cn1ncc2cc(-c3cnc(N4CCC(N)CC4)nc3-c3ccc(C#N)cc3)ncc21 [Example 69, 4-[2-(4-aminopiperidin-1-yl)-5-(1-methylpyrazolo[3,4-c]pyridin-5-yl)pyrimidin-4-yl]benzonitrile]
IC50 (THP-1 (AML) cells): 100 to 1000 nM | IC50 (full-length human LSD1): < 100 nM

Structure (SMILES): N#Cc1ccc(-c2nc(N3CCC(N)CC3)ncc2-c2cnn(C3CCOC3)c2)cc1 (stereo not shown) [Example 71, 4-[2-(4-aminopiperidin-1-yl)-5-[1-(oxolan-3-yl)pyrazol-4-yl]pyrimidin-4-yl]benzonitrile]
IC50 (THP-1 (AML) cells): 100 to 1000 nM | IC50 (full-length human LSD1): < 100 nM

Structure (SMILES): Cn1cc2cc(-c3cnc(N4CCC(N)CC4)nc3-c3ccc(C#N)cc3)ncc2n1 [Example 73, 4-[2-(4-aminopiperidin-1-yl)-5-(2-methylpyrazolo[3,4-c]pyridin-5-yl)pyrimidin-4-yl]benzonitrile]
IC50 (THP-1 (AML) cells): 100 to 1000 nM | IC50 (full-length human LSD1): < 100 nM

Structure (SMILES): Cn1cc2ncc(-c3cnc(N4CCC(N)CC4)nc3-c3ccc(C#N)cc3)cc2n1 [Example 76, 4-[2-(4-aminopiperidin-1-yl)-5-(2-methylpyrazolo[4,3-b]pyridin-6-yl)pyrimidin-4-yl]benzonitrile]
IC50 (THP-1 (AML) cells): 100 to 1000 nM | IC50 (full-length human LSD1): < 100 nM

Structure (SMILES): Cn1ccc2nc(-c3cnc(N4CCC(N)CC4)nc3-c3ccc(C#N)cc3)ccc21 [Example 77, 4-[2-(4-aminopiperidin-1-yl)-5-(1-methylpyrrolo[3,2-b]pyridin-5-yl)pyrimidin-4-yl]benzonitrile]
IC50 (THP-1 (AML) cells): 100 to 1000 nM | IC50 (full-length human LSD1): < 100 nM

Structure (SMILES): N#Cc1ccc(-c2nc(N3CCC(N)CC3)ncc2-c2cnn(CC3CCOC3)c2)cc1 (stereo not shown) [Example 78, 4-[2-(4-aminopiperidin-1-yl)-5-[1-(oxolan-3-ylmethyl)pyrazol-4-yl]pyrimidin-4-yl]benzonitrile]
IC50 (THP-1 (AML) cells): 100 to 1000 nM | IC50 (full-length human LSD1): < 100 nM

Structure (SMILES): Cn1cc2cc(-c3cnc(N4CCC(N)CC4)nc3-c3ccc(C#N)cc3)cnc2n1 [Example 85, 4-[2-(4-aminopiperidin-1-yl)-5-(2-methylpyrazolo[3,4-b]pyridin-5-yl)pyrimidin-4-yl]benzonitrile]
IC50 (THP-1 (AML) cells): 100 to 1000 nM | IC50 (full-length human LSD1): < 100 nM

Structure (SMILES): N#Cc1ccc(-c2nc(N3CCC(N)CC3)ncc2-c2ccc3nc[nH]c3c2)cc1 [Example 91, 4-[2-(4-aminopiperidin-1-yl)-5-(3H-benzimidazol-5-yl)pyrimidin-4-yl]benzonitrile]
IC50 (THP-1 (AML) cells): 100 to 1000 nM | IC50 (full-length human LSD1): < 100 nM

Structure (SMILES): Cc1c2cc(-c3cnc(N4CCC(N)CC4)nc3-c3ccc(C#N)c(F)c3)ccc2nn1C [Example 92, 4-[2-(4-aminopiperidin-1-yl)-5-(2,3-dimethylindazol-5-yl)pyrimidin-4-yl]-2-fluorobenzonitrile]
IC50 (THP-1 (AML) cells): < 100 nM | IC50 (full-length human LSD1): < 100 nM

Structure (SMILES): Cc1nn(C)c2ccc(-c3cnc(N4CCC(N)CC4)nc3-c3ccc(C#N)c(F)c3)cc12 [Example 93, 4-[2-(4-aminopiperidin-1-yl)-5-(1,3-dimethylindazol-5-yl)pyrmidin-4-yl]-2-fluorobenzonitrile]
IC50 (THP-1 (AML) cells): < 100 nM | IC50 (full-length human LSD1): < 100 nM

Structure (SMILES): N#Cc1ccc(-c2nc(N3CCC(N)CC3)ncc2C#CC2(O)CCOC2)cc1F (stereo not shown) [Example 94, 4-[2-(4-aminopiperidin-1-yl)-5-[2-(3-hydroxyoxolan-3-yl)ethynyl]pyrimidin-4-yl]-2-fluorobenzonitrile]
IC50 (THP-1 (AML) cells): < 100 nM | IC50 (full-length human LSD1): < 100 nM

The remaining lines, values ahead:

IC50 (THP-1 (AML) cells): < 100 nM | IC50 (full-length human LSD1): < 100 nM
Structure (SMILES): Cn1cc2cc(-c3cnc(N4CCC(N)CC4)nc3-c3ccc(C#N)c(F)c3)ccc2n1 [Example 59, 4-[2-(4-aminopiperidin-1-yl)-5-(2-methylindazol-5-yl)pyrimidin-4-yl]-2-fluorobenzonitrile]

IC50 (THP-1 (AML) cells): < 100 nM | IC50 (full-length human LSD1): < 100 nM
Structure (SMILES): N#Cc1ccc(-c2nc(N3CCC(N)CC3)ncc2-c2cnn(CC(F)(F)F)c2)cc1 [Example 61, 4-[2-(4-aminopiperidin-1-yl)-5-[1-(2,2,2-trifluoroethyl)pyrazol-4-yl]pyrimidin-4-yl]benzonitrile]

IC50 (THP-1 (AML) cells): < 100 nM | IC50 (full-length human LSD1): < 100 nM
Structure (SMILES): N#Cc1ccc(-c2nc(N3CCC4(CCNC4)CC3)ncc2-c2cnn(CC(F)(F)F)c2)cc1 [Example 62, 4-[2-(2,8-diazaspiro[4.5]decan-8-yl)-5-[1-(2,2,2-trifluoroethyl)pyrazol-4-yl]pyrimidin-4-yl]benzonitrile]

IC50 (THP-1 (AML) cells): < 100 nM | IC50 (full-length human LSD1): < 100 nM
Structure (SMILES): Cn1ncc2cc(-c3cnc(N4CCC(N)CC4)nc3-c3ccc(C#N)cc3)cnc21 [Example 64, 4-[2-(4-aminopiperidin-1-yl)-5-(1-methylpyrazolo[3,4-b]pyridin-5-yl)pyrimidin-4-yl]benzonitrile]

IC50 (THP-1 (AML) cells): < 100 nM | IC50 (full-length human LSD1): < 100 nM
Structure (SMILES): Cn1ncc2cc(-c3cnc(N4CCC5CNCC5CC4)nc3-c3ccc(C#N)cc3)cnc21 (stereo not shown) [Example 65, 4-[2-(2,3,3a,4,5,7,8,8a-octahydro-1H-pyrrolo[3,4-d]azepin-6-yl)-5-(1-methylpyrazolo[3,4-b]pyridin-5-yl)pyrimidin-4-yl]benzonitrile]

IC50 (THP-1 (AML) cells): < 100 nM | IC50 (full-length human LSD1): < 100 nM
Structure (SMILES): Cn1cnc2cc(-c3cnc(N4CCC(N)CC4)nc3-c3ccc(C#N)cc3)cnc21 [Example 66, 4-[2-(4-aminopiperidin-1-yl)-5-(3-methylimidazo[4,5-b]pyridin-6-yl)pyrimidin-4-yl]benzonitrile]

IC50 (THP-1 (AML) cells): < 100 nM | IC50 (full-length human LSD1): < 100 nM
Structure (SMILES): N#Cc1ccc(-c2nc(N3CCC(N)CC3)ncc2C#CC2(O)CCCC2)cc1 [Example 70, 4-{2-(4-aminopiperidin-1-yl)-5-[2-(1-hydroxycyclopentyl)ethynyl]pyrimidin-4-yl]benzonitrile]

IC50 (THP-1 (AML) cells): < 100 nM | IC50 (full-length human LSD1): < 100 nM
Structure (SMILES): Cn1nnc2cc(-c3cnc(N4CCC(N)CC4)nc3-c3ccc(C#N)cc3)ccc21 [Example 72, 4-[2-(4-aminopiperidin-1-yl)-5-(1-methylbenzotriazol-5-yl)pyrimidin-4-yl]benzonitrile]

IC50 (THP-1 (AML) cells): < 100 nM | IC50 (full-length human LSD1): < 100 nM
Structure (SMILES): N#Cc1ccc(-c2nc(N3CCC(N)CC3)ncc2-c2ccc3c(c2)ncn3C(F)F)cc1 [Example 79, 4-[2-(4-aminopiperidin-1-yl)-5-[1-(difluoromethyl)benzimidazol-5-yl]pyrimidin-4-yl]benzonitrile]

IC50 (THP-1 (AML) cells): < 100 nM | IC50 (full-length human LSD1): < 100 nM
Structure (SMILES): N#Cc1ccc(-c2nc(N3CCC(N)CC3)ncc2-c2cnn(CC(F)(F)F)c2)cc1F [Example 80, 4-[2-(4-aminopiperidin-1-yl)-5-[1-(2,2,2-trifluoroethyl)pyrazol-4-yl]pyrimidin-4-yl]-2-fluorobenzonitrile]

IC50 (THP-1 (AML) cells): < 100 nM | IC50 (full-length human LSD1): < 100 nM
Structure (SMILES): COc1ccc(-c2cnc(N3CCC(N)CC3)nc2-c2ccc(C#N)cc2)cc1 [Example 83, 4-[2-(4-aminopiperidin-1-yl)-5-(4-methoxyphenyl)pyrimidin-4-yl]benzonitrile]

IC50 (THP-1 (AML) cells): < 100 nM | IC50 (full-length human LSD1): < 100 nM
Structure (SMILES): COc1ccc(-c2cnc(N3CCC(N)CC3)nc2-c2ccc(C#N)cc2)cc1F [Example 84, 4-[2-(4-aminopiperidin-1-yl)-5-(3-fluoro-4-methoxyphenyl)pyrimidin-4-yl]benzonitrile]

IC50 (THP-1 (AML) cells): < 100 nM | IC50 (full-length human LSD1): < 100 nM
Structure (SMILES): Cn1cnc2cc(-c3cnc(N4CCC(N)CC4)nc3-c3ccc(C#N)c(F)c3)ccc21 [Example 87, 4-[2-(4-aminopiperidin-1-yl)-5-(1-methylbenzimidazol-5-yl)pyrimidin-4-yl]-2-fluorobenzonitrile]

IC50 (THP-1 (AML) cells): < 100 nM | IC50 (full-length human LSD1): < 100 nM
Structure (SMILES): CNC1CCN(c2ncc(-c3cnn(CC(F)(F)F)c3)c(-c3ccc(C#N)c(F)c3)n2)CC1 [Example 89, 2-fluoro-4-[2-[4-(methylamino)piperidin-1-yl]-5-[1-(2,2,2-trifluoroethyl)pyrazol-4-yl]pyrimidin-4-yl]benzonitrile]
